Results: patent US11980616B2, “Treating liver disease by selectively eliminating senescent cells” (Buck Institute for Research on Aging, priority 2014, dated 2024)

Columns and labels:
[1] = system: p16-3MR mice fed a high fat diet; test: High fat feeding-induced senescence in p16-3MR mice, SA-β-Gal staining of adipose tissue; format: in vivo, mouse; settings: 25 mg/kg daily for five days; p=<0.004
Procedure: Groups of p16-3MR mice (n=6) were fed a high fat diet (60% fat) for four months mice or a regular chow diet. The presence of senescence cells was determined by measuring luminescence p16 positive cells). […] Animals were then treated with ganciclovir or vehicle to determine if removal of senescent cells reduced the presence of senescent cells in adipose tissue. Groups of animals were treated with ganciclovir or vehicle. Ganciclovir (25 mg/kg) was administered daily for five consecutive days. The presence of senescent cells in perirenal, epididymal, or subcutaneous inguinal adipose tissue was detected by SA-β-Gal staining. Data were analyzed by ANOVA.

[2] = system: senescent foreskin fibroblasts (Sen(IR)BJ); test: Cell count survival assay, irradiation-induced senescent BJ; format: cell-based; settings: 0, 2.5, 10 μM for 9 days
Procedure: (§1) Foreskin fibroblast cell lines HCA2 and BJ, lung fibroblast cell line IMR90, and mouse embryonic fibroblasts were seeded in six-well plates and induced to senesce with 10 Gy of ionizing radiation (IR) or a 24 hr treatment with doxorubicin (Doxo). Senescent phenotype was allowed to develop for at least 7 days, at which point a cell count was made to determine the baseline number of cells. Nutlin-3a treatment was then initiated for a period of at least 9 days. Media alone or media with drug as appropriate was refreshed at least every three days. At the end of the assay time period, cells are counted. Each condition was seeded in three plate wells and counted independently. Initial cell count serves as a control to determine the induction of senescence, as compared to the last day count without nutlin treatment. Initial non-senescent cell count serves as a proxy to determine Nutlin-3a toxicity.
(§2) Foreskin fibroblast cell lines HCA2 and BJ, lung fibroblast cell line IMR90, and mouse embryonic fibroblasts were exposed to 10 Gy of ionizing radiation (IR) to induce senescence. […] Percent survival was calculated as [cell count on day 9 of Nutlin-3a treatment/initial cell count on first day of Nutlin-3a treatment].

LDLR-/- mice fed a HFD = test: Atherosclerosis model, LDLR-/- mice fed a high fat diet; format: in vivo, mouse
Description: Schematics of two atherosclerosis mouse models are presented in FIGS. 43A-B. The study illustrated in FIG. 43A assessed the extent to which clearance of senescent cells from plaques in LDLR^−/− mice with Nutlin-3A reduces plaque load. Two groups of LDLR^−/− mice (10 weeks) are fed a high fat diet (HFD) (Harlan Teklad TD.88137) having 42% calories from fat, beginning at Week 0 and throughout the study. Two groups of LDLR^−/− mice (10 weeks) are fed normal chow (−HFD). From weeks 0-2, one group of HFD mice and −HFD mice are treated with Nutlin-3A (25 mg/kg, intraperitoneally). One treatment cycle is 14 days treatment, 14 days off. Vehicle is administered to one group of HFD mice and one group of −HFD mice. At week 4 (timepoint 1), one group of mice are sacrificed and to assess presence of senescent cells in the plaques. For the some of the remaining mice, Nutlin-3A and vehicle administration is repeated from weeks 4-6. At week 8 (timepoint 2), the mice are sacrificed and to assess presence of senescent cells in the plaques. The remaining mice are treated with Nutlin-3A or vehicle from weeks 8-10. At week 12 (timepoint 3), the mice are sacrificed and to assess the level of plaque and the number of senescent cells in the plaques.
Plasma lipid levels were measured in LDLR^−/− mice fed a HFD and treated with Nutlin-3A or vehicle at timepoint 1 as compared with mice fed a −HFD (n=3 per group). Plasma was collected mid-afternoon and analyzed for circulating lipids and lipoproteins.
At the end of timepoint 1, LDLR^−/− mice fed a HFD and treated with Nutlin-3A or vehicle were sacrificed (n=3, all groups), and the aortic arches were dissected for RT-PCR analysis of SASP factors and senescent cell markers. Values were normalized to GAPDH and expressed as fold-change versus age-matched, vehicle-treated LDLR^−/− mice on a normal diet.
At the end of timepoint 2, LDLR^−/− mice fed a HFD and treated with Nutlin-3A or vehicle (n=3 for all groups) were sacrificed, and aortic arches were dissected for RT-PCR analysis of SASP factors and senescent cell markers. Values were normalized to GAPDH and expressed as fold-change versus age-matched, vehicle-treated LDLR^−/− mice on a normal diet.
At the end of timepoint 3, LDLR^−/− mice fed a HFD and treated with Nutlin-3A or vehicle (n=3 for all groups) were sacrificed, and aortas were dissected and stained with Sudan IV to detect the presence of lipid. Body composition of the mice was analyzed by MRI, and circulating blood cells were counted by Hemavet. […] As shown in FIGS. 48A-B, the platelet and lymphocyte counts were equivalent between the Nutlin-3A and vehicle treated mice.

[3] = system: IL-6 secretion by senescent IMR90 cells; test: IL-6 secretion ELISA in irradiated senescent IMR90 cells; format: cell-based, human; settings: 10 μM for nine days, then six days without drug; ELISA normalized to cell number
Procedure: In another experiment, IMR90 cells were induced to senesce by irradiation (10 Gy). Seven days after irradiation, cells were treated with 10 μM Nutlin-3a or vehicle (DMSO) for nine days (Day 9). The drug or vehicle was refreshed every three days. Drug/vehicle was removed at Day 9 and the cells were cultured for an additional six days. Conditioned media from the treated cells was collected, and IL-6 measurement by ELISA was performed (Perkin Elmer, AL223F). IL-6 levels in culture media were determined by ELISA using a kit according to manufacturer's instructions (AL223F, Perkin Elmer). Cells were fixed with 4% paraformaldehyde and stained by immunofluorescence with a specific anti-IL-6 antibody (R&D, AF-206-NA). The IL-6 level determined by ELISA was normalized to the number of cells in each well. The data are presented in FIG. 22C as a relative level of IL-6 in the treated cells compared to the level in non-senescent cells (NS). The data are presented as an average of three different cell samples.

[4] = system: senescent foreskin fibroblasts (Sen(IR)HCA2); test: Cell count survival assay, irradiation-induced senescent HCA2; format: cell-based; settings: 0, 2.5, 10 μM for 9 days
Procedure: as §1, §2

Structure (SMILES): Nc1nc(O)c2ncn(COC(CO)CO)c2n1 [ganciclovir]
- Presence of senescent cells in epididymal fat (SA-β-Gal staining) [1]: significant reduction

Structure (SMILES): COc1ccc(C2=N[C@@H](c3ccc(Cl)cc3)[C@@H](c3ccc(Cl)cc3)N2C(=O)N2CCNC(=O)C2)c(OC(C)C)c1 [Nutlin-3a]
- Percent survival [2]: reduced cell survival
- Expression of SASP factors and senescent cell markers in aortic arch (RT-PCR) (LDLR-/- mice fed a HFD; 25 mg/kg i.p., after 1 treatment cycle, MMP3, MMP13, PAI1, p21, IGFBP2, IL-1A, IL-1B): reduced expression of several SASP factors and senescent cell markers
- Expression of SASP factors and senescent cell markers in aortic arch (RT-PCR) (LDLR-/- mice fed a HFD; 25 mg/kg i.p., multiple (two) treatment cycles): reduced expression of most markers
- Reduction of plaques in the descending aorta (Sudan IV) (LDLR-/- mice fed a HFD; 25 mg/kg i.p., three treatment cycles, week 12): ~45%
- Lymphocyte count vs vehicle (LDLR-/- mice fed a HFD; three treatment cycles): equivalent
- Platelet count vs vehicle (LDLR-/- mice fed a HFD; three treatment cycles): equivalent
- IL-6 level, fold lower than DMSO treated cells [3]: 5-9 fold
- Percent survival [4]: reduced cell survival
